One series deals with T1, OX1 (Homo sapiens, UniProt O43613).
T1 construct: expressed in transfected cells; host or cells: CHO (CHO-OX1, kept under selection antibiotic)
T1 sequence (O43613 1-425): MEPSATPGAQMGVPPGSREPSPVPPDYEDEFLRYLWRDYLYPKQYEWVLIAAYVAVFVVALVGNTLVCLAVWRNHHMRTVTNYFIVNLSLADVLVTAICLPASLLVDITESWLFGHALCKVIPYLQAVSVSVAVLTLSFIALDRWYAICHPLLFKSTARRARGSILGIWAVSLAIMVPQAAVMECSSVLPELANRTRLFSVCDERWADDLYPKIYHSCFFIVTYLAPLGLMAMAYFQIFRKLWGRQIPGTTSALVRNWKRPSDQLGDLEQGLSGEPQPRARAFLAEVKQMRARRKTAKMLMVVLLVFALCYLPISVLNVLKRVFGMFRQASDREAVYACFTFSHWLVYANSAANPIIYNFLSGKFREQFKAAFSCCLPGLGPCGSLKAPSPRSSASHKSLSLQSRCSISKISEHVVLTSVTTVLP
As to the kind of experiment: Orexin receptor cell-based functional assay, [Ca2+]i by FLIPR, CHO-OX1 cells. Conditions: CHO-OX1 cells, [Ca2+]i by FLIPR, antagonist dose-range 0.1 nM-10 μM, EC90 of OXA; read-out: OX1. In outline: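 CHO cells expressing human OX1 or OX2 loaded with calcium dye plus 2.5 mM probenecid at 37° C (calcium4, 30 min, or calcium6, 2 h), then exposed to compounds (0.1 nM-10 μM) for 30 min. Intracellular Ca2+ measured on FLIPR; antagonist format.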

The target in another series is T2, CYP3A4 (Homo sapiens, UniProt P08684).
T2 construct: pre-incubated with human liver microsomes and NADPH; from tissue; host or cells: human liver microsomes
T2 sequence (P08684 whole entry): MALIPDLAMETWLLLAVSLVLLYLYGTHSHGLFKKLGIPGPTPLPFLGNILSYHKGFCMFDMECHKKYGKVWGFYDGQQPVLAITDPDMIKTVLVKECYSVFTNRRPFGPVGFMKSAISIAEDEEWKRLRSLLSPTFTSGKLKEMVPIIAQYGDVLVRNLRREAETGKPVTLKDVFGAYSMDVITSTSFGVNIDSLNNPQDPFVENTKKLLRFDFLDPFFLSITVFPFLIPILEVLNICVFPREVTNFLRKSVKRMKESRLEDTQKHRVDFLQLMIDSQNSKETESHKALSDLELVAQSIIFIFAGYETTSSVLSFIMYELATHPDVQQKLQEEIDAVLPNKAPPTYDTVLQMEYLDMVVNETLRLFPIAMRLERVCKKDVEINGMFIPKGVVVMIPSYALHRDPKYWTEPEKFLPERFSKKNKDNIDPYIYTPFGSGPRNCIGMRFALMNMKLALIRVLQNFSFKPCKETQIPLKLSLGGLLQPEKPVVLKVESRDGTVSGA
As to the kind of experiment: Cytochrome P450 inhibition assay (midazolam hydroxylation). In kind it is in vitro ADME. Conditions: human, human liver microsomes, probe midazolam (hydroxylation to 1′-hydroxymidazolam), 10 μM test compound, midazolam at approximately its Km. In outline:
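Human liver microsomes; CYP3A4 activity as midazolam 1′-hydroxylation with substrate near Km, with or without 10 μM test compound, read as percent inhibition. For time-dependent inhibition, parallel samples were preincubated 30 min with NADPH before substrate, and percent inhibition compared with non-preincubated samples.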

As to `Cc1ccc(-n2ncc(C)n2)c(C(=O)N2CCC[C@@H](C)[C@H]2CNc2ccc(Cl)cn2)c1` [Example A121, ((2S,3R)-2-(((5-Chloropyridin-2-yl)amino)methyl)-3-methylpiperidin-1-yl)(5-methyl-2-(4-methyl-2H-1,2,3-triazol-2-yl)phenyl)methanone], the IC50 at OX1 turned out to be 5 nM. This molecule gave an inhibition at 10 µM against CYP3A4 of 84%.
For `Cc1ccc(-n2nccn2)c(C(=O)N2CCC[C@@H](C)[C@H]2CNc2ncc3cc(Br)ccc3n2)c1` [Example A122, ((2S,3R)-2-(((6-Bromoquinazolin-2-yl)amino)methyl)-3-methylpiperidin-1-yl)(5-methyl-2-(2H-1,2,3-triazol-2-yl)phenyl)methanone] the same measures were 96 nM and 72%.
As to `Cc1ccc(-n2nccn2)c(C(=O)N2CCC[C@@H](C)[C@H]2CNc2nc(C(F)(F)F)cs2)c1` [Example A123, ((2S,3R)-3-Methyl-2-(((4-(trifluoromethyl)thiazol-2-yl)amino)methyl)piperidin-1-yl)(5-methyl-2-(2H-1,2,3-triazol-2-yl)phenyl)methanone], at OX1, the IC50 turned out to be 410 nM. This molecule displayed an inhibition at 10 µM at CYP3A4 of 97%.
For the molecule `Cc1ccc(-n2ncc(C)n2)c(C(=O)N2CCC[C@@H](C)[C@H]2CNc2ccc(C(F)(F)F)nn2)c1` [Example A125, ((2S,3R)-3-Methyl-2-(((6-(trifluoromethyl)pyridazin-3-yl)amino)methyl)piperidin-1-yl)(5-methyl-2-(4-methyl-2H-1,2,3-triazol-2-yl)phenyl)methanone], on OX1, the IC50 stood at 25 nM. At CYP3A4, at 10 µM the inhibition was 75%.
With `Cc1ccc(-n2nccn2)c(C(=O)N2CCC[C@@H](C)[C@H]2CNc2ccc(C#N)cn2)c1` [Example A127, 6-((((2S,3R)-3-Methyl-1-(5-methyl-2-(2H-1,2,3-triazol-2-yl)benzoyl)piperidin-2-yl)methyl)amino)nicotinonitrile], the IC50 at OX1 was found to be 5 nM. On CYP3A4, this molecule returned an inhibition at 10 µM of 57%.
As to `Cc1ccc(-n2nccn2)c(C(=O)N2CCC[C@@H](C)[C@H]2CNc2nc3cc(F)ccc3o2)c1` [Example A129, ((2S,3R)-2-(((5-Fluorobenzo[d]oxazol-2-yl)amino)methyl)-3-methylpiperidin-1-yl)(5-methyl-2-(2H-1,2,3-triazol-2-yl)phenyl)methanone], the IC50 on OX1 worked out at 3 nM. At CYP3A4, this molecule returned an inhibition at 10 µM of 64%.
Consider `Cc1ccc(-n2ccc(C)n2)c(C(=O)N2CCC[C@@H](C)[C@H]2CNc2ccc(C(F)(F)F)nn2)c1` [Example A130, ((2S,3R)-3-Methyl-2-(((6-(trifluoromethyl)pyridazin-3-yl)amino)methyl)piperidin-1-yl)(5-methyl-2-(3-methyl-1H-pyrazol-1-yl)phenyl)methanone], for which the IC50 at OX1 was found to be 21 nM. Further, at 10 µM the inhibition against CYP3A4 was 86%.
`Cc1ccc(-n2ccc(C)n2)c(C(=O)N2CCC[C@@H](C)[C@H]2CNc2nnc(C(F)(F)F)s2)c1` [Example A132, ((2S,3R)-3-Methyl-2-(((5-(trifluoromethyl)-1,3,4-thiadiazol-2-yl)amino)methyl)piperidin-1-yl)(5-methyl-2-(3-methyl-1H-pyrazol-1-yl)phenyl)methanone]: the IC50 on OX1 amounted to 160 nM. For the same molecule, the inhibition at 10 µM against CYP3A4 amounted to 81%.
On to `Cc1ccc(-n2ccc(C)n2)c(C(=O)N2CCC[C@@H](C)[C@H]2CNc2ccc(C#N)cn2)c1` [Example A133, 6-((((2S,3R)-3-Methyl-1-(5-methyl-2-(3-methyl-1H-pyrazol-1-yl)benzoyl)piperidin-2-yl)methyl)amino)nicotinonitrile], for which the IC50 at OX1 amounted to 93 nM. At CYP3A4, the inhibition at 10 µM amounted to 89%.
As to `Cc1ccc(-n2nccn2)c(C(=O)N2CCC[C@@H](C)[C@H]2CNc2ncc(C#N)cn2)c1` [Example A134, 2-((((2S,3R)-3-Methyl-1-(5-methyl-2-(2H-1,2,3-triazol-2-yl)benzoyl)piperidin-2-yl)methyl)amino)pyrimidine-5-carbonitrile], the IC50 on OX1 stood at 150 nM. Moreover, on CYP3A4, the inhibition at 10 µM was 50%.
The like results for `Cc1ccc(-n2ncc(C)n2)c(C(=O)N2CCC[C@@H](C)[C@H]2CNc2nnc(C(F)(F)F)s2)c1` [Example A135, ((2S,3R)-3-Methyl-2-(((5-(trifluoromethyl)-1,3,4-thiadiazol-2-yl)amino)methyl)piperidin-1-yl)(5-methyl-2-(4-methyl-2H-1,2,3-triazol-2-yl)phenyl)methanone] were, in that order, 21 nM and 80%.
For the molecule `Cc1ccc(-c2ncccn2)c(C(=O)N2CCC[C@@H](C)[C@H]2CNc2ccc(C(F)(F)F)nn2)c1` [Example A137, ((2S,3R)-3-Methyl-2-(((6-(trifluoromethyl)pyridazin-3-yl)amino)methyl)piperidin-1-yl)(5-methyl-2-(pyrimidin-2-yl)phenyl)methanone], the IC50 on OX1 stood at 31 nM. This molecule showed an inhibition at 10 µM on CYP3A4 of 47%.
`Cc1ccc(-c2ncccn2)c(C(=O)N2CCC[C@@H](C)[C@H]2CNc2ccc(Cl)cn2)c1` [Example A138, ((2S,3R)-2-(((5-Chloropyridin-2-yl)amino)methyl)-3-methylpiperidin-1-yl)(5-methyl-2-(pyrimidin-2-yl)phenyl)methanone]: the IC50 on OX1 is 12 nM. The same molecule gave an inhibition at 10 µM on CYP3A4 of 75%.
Turning to `Cc1ccc(-c2ncccn2)c(C(=O)N2CCC[C@@H](C)[C@H]2CNc2ccc(C#N)cn2)c1` [Example A139, 6-((((2S,3R)-3-Methyl-1-(5-methyl-2-(pyrimidin-2-yl)benzoyl)piperidin-2-yl)methyl)amino)nicotinonitrile], the IC50 on OX1 came to 140 nM. At CYP3A4, this molecule came in with an inhibition at 10 µM of 41%.
Take `Cc1ccc(-n2nccn2)c(C(=O)N2CCC[C@@H](C)[C@H]2CNc2ccc(C3(C#N)CC3)cn2)c1` [Example A140, 1-(6-((((2S,3R)-3-Methyl-1-(5-methyl-2-(2H-1,2,3-triazol-2-yl)benzoyl)piperidin-2-yl)methyl)amino)pyridin-3-yl)cyclopropanecarbonitrile]: at OX1, the IC50 turned out to be 13 nM. Also, the inhibition at 10 µM on CYP3A4 was 64%.
In the case of `Cc1ccc(-n2ncc(C)n2)c(C(=O)N2CCC[C@@H](C)[C@H]2CNc2ccc(F)cn2)c1` [Example A142, ((2S,3R)-2-(((5-Fluoropyridin-2-yl)amino)methyl)-3-methylpiperidin-1-yl)(5-methyl-2-(4-methyl-2H-1,2,3-triazol-2-yl)phenyl)methanone], the IC50 on OX1 came out at 51 nM. Besides, at 10 µM the inhibition against CYP3A4 was 74%.
As for `Cc1ccc(NC[C@@H]2[C@H](C)CCCN2C(=O)c2cc(C)ccc2-c2ncccn2)nc1` [Example A143, ((2S,3R)-3-Methyl-2-(((5-methylpyridin-2-yl)amino)methyl)piperidin-1-yl)(5-methyl-2-(pyrimidin-2-yl)phenyl)methanone], on OX1, the IC50 was determined as 26 nM. The inhibition at 10 µM at CYP3A4 was 75%.
As to `Cc1ccc(-n2nccn2)c(C(=O)N2CCC[C@@H](C)[C@H]2CNc2ccc(C#N)nn2)c1` [Example A145, 6-((((2S,3R)-3-Methyl-1-(5-methyl-2-(2H-1,2,3-triazol-2-yl)benzoyl)piperidin-2-yl)methyl)amino)pyridazine-3-carbonitrile], at OX1, the IC50 was over 1000 nM. The same molecule came in with an inhibition at 10 µM against CYP3A4 of 48%.
Consider `Cc1ccc(-n2nccn2)c(C(=O)N2CCC[C@@H](C)[C@H]2CNc2ccc(C)nn2)c1` [Example A146, ((2S,3R)-3-Methyl-2-(((6-methylpyridazin-3-yl)amino)methyl)piperidin-1-yl)(5-methyl-2-(2H-1,2,3-triazol-2-yl)phenyl)methanone], for which the IC50 at OX1 was over 1000 nM. Besides, at 10 µM the inhibition on CYP3A4 was 29%.
For `Cc1ccc(-n2nccn2)c(C(=O)N2CCC[C@@H](C)[C@H]2CNc2ncc(C#N)cc2F)c1` [Example A148, 5-Fluoro-6-((((2S,3R)-3-methyl-1-(5-methyl-2-(2H-1,2,3-triazol-2-yl)benzoyl)piperidin-2-yl)methyl)amino)nicotinonitrile] the same measures were 83 nM and 81%.
As to `Cc1ccc(-n2nccn2)c(C(=O)N2CCC[C@@H](C)[C@H]2CNc2ncc(C(F)(F)F)cn2)c1` [Example A149, ((2S,3R)-3-Methyl-2-(((5-(trifluoromethyl)pyrimidin-2-yl)amino)methyl)piperidin-1-yl)(5-methyl-2-(2H-1,2,3-triazol-2-yl)phenyl)methanone], the IC50 at OX1 stood at 3 nM. This molecule showed an inhibition at 10 µM against CYP3A4 of 60%.
With `Cc1ccc(-c2ccccn2)c(C(=O)N2CCC[C@@H](C)[C@H]2CNc2ccc(C(F)(F)F)nn2)c1` [Example A150, ((2S,3R)-3-Methyl-2-(((6-(trifluoromethyl)pyridazin-3-yl)amino)methyl)piperidin-1-yl) (5-methyl-2-(pyridin-2-yl)phenyl)methanone], the IC50 on OX1 was determined as 130 nM. Also, at CYP3A4, 10 µM produced 74% inhibition.

The values above are taken from patent US9440982B2 (Eolas Therapeutics, Inc., priority 2012, dated 2016).
